The values that follow come from patent publication US8945856B2, “Affinity-based detection of biological targets” (priority 2005, dated 2015).

The subject of one assay is E. coli. The format is binding.
The next assay concerns the target botulinum toxoid A (Clostridium botulinum, UniProt P0DPI0). It is filed as binding.
The subject of a further assay is E. coli cells. Particulars: total analysis time 2.5 hours; cited from earlier work.
In assay [1] the test system is heat-killed E. coli O157:H7 cells. The assay is described as follows: Array Biosensor direct assay: Cy5-labeled cells binding to immobilized magainin. Conditions: magainin I covalently (directly) immobilized via GMBS.
Assay [2] deals with heat-killed S. typhimurium cells. The assay is described as above.
A further assay deals with Campylobacter sp. The assay is described as follows: Array Biosensor binding to directly immobilized magainin. Conditions: analogous conditions.
A further assay concerns Bacillus sp. The description is as above. Conditions: analogous conditions.
The test system of another assay is Salmonella. The format is binding.
In assay [3] the test system is E. coli lipopolysaccharide (LPS). As to the kind of experiment: Fiber optic biosensor 5-minute competitive assay with polymyxin B as capture molecule (James et al.). It is filed as binding. Conditions: assuming LPS monomer 4-20 kDa and 1.2×10^6 LPS molecules per cell.
The test system is the same in assay [4]. Particulars: 5-minute competitive assays; cited from earlier work.

botulinum toxoid A, sequence (P0DPI0 whole entry, looked up): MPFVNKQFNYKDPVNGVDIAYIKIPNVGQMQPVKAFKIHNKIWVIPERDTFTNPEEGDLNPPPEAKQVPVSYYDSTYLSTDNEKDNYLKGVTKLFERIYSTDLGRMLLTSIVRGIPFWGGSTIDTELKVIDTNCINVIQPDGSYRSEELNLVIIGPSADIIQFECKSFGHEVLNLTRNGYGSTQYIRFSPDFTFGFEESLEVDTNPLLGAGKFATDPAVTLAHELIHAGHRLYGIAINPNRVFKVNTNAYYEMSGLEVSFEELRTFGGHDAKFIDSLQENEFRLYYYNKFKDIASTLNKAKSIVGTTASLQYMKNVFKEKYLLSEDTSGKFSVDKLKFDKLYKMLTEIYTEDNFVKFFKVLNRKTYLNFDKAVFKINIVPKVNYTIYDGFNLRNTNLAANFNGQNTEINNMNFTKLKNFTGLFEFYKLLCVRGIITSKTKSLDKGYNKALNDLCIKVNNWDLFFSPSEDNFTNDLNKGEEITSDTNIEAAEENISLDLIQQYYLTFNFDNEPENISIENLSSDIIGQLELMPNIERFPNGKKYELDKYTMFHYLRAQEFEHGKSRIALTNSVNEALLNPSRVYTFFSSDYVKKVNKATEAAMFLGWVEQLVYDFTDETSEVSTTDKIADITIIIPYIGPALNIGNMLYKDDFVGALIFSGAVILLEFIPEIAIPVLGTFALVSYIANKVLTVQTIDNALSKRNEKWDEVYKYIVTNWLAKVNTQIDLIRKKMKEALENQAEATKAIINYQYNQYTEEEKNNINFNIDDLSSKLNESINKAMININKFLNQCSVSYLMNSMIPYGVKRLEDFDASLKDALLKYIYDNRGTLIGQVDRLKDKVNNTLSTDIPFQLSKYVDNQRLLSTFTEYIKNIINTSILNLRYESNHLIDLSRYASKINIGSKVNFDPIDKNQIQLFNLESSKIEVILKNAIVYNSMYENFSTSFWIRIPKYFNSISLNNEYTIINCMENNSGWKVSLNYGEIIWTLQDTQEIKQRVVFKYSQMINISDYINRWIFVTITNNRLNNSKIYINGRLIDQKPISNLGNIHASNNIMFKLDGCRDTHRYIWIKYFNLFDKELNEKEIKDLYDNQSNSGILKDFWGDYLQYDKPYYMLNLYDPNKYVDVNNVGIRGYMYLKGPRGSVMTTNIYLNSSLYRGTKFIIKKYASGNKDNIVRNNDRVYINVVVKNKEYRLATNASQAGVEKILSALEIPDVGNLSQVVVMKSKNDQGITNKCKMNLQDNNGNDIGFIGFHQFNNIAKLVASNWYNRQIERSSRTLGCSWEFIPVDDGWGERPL

Bactenecin: the “LOD for E. coli” value in the assay with E. coli was 10^2-10^3 cfu/ml.
Regarding “Cecropin A (KWKLFKKIEKVGQNIRDGIIKAGPAVAVVGQATQIAK)”, in the assay with botulinum toxoid A, the “Binding of botulinum toxoid to immobilized capture species” value (from here on “Binding of botulinum toxoid”) is on record as “bound”; the “Estimated limit of detection compared with antibody-based assays” value is listed as “significantly lower”; the “Preferential binding, toxoid A versus toxoid B” value is “bound preferentially by toxoid A”.
As for “Cecropin P1 (SWLSKTAKKLENSAKKRISEGIAIAIQGGPR; Cecropin-P1; UniProt P14661 14-44, looked up)”, the “Detection limit for E. coli” value with E. coli cells was ~10^7 cfu/mL.
In the case of “Magainin I (GIGKFLHSAGKFGKAFVGEIMKS; listed as Xenopus laevis)”, the “Detection limit for labelled E. coli” value in assay [1] is listed as 1.6×10^5 cell/mL. In assay [2] (magainin I covalently (directly) immobilized via GMBS, Cy5-labeled heat-killed cells), the “Detection limit for labelled S. typhimurium” value was 6.5×10^4 cell/mL. In addition, the “Concentration in solution during immobilization step at which bacterial binding saturated” value in assay [2] (patterning solution, target bacteria) is given as 0.4 mM. Also, in the assay with botulinum toxoid A, the “Binding of botulinum toxoid” value is “not”. For the same substance, in the assay on Campylobacter sp., the “Binding of Campylobacter sp.” value is “only trace binding”. Besides, the “Binding of Bacillus sp.” value with Bacillus sp. is “only trace binding”.
For the substance Polymyxin B, the “Binding of botulinum toxoid” value at botulinum toxoid A is listed as “less strongly”. Also, in the assay on Salmonella, the “LOD for Salmonella” value is on record as 10^5 cfu/ml. Also, the “Detection limit calculated as number of bacteria per mL” value in assay [3] is reported as 3×10^5-1.3×10^6 cells/mL. For the same substance, the “Detection limit for E. coli LPS” value in assay [4] is “approx. 10 ng/mL”.
